According to PubChem BioAssay (NCI):
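Method: 48-hour compound exposure of cells in 96-well plates, five concentrations, linear interpolation of endpoints. At the TGI there is no net growth.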

Key:
Experiment in all cases: NCI tumour cell line growth inhibition, 48 h
SW-620 colon = tested on: SW-620 colon
NCI-H23 lung = tested on: NCI-H23 lung
K-562 leukemia = tested on: K-562 leukemia
HCT-116 colon = tested on: HCT-116 colon
HL-60(TB) leukemia = tested on: HL-60(TB) leukemia
HCC-2998 colon = tested on: HCC-2998 colon
MOLT-4 leukemia = tested on: MOLT-4 leukemia
UACC-257 melanoma = tested on: UACC-257 melanoma
M14 melanoma = tested on: M14 melanoma
RXF 393 renal = tested on: RXF 393 renal
SR leukemia = tested on: SR leukemia
LOX IMVI melanoma = tested on: LOX IMVI melanoma
SF-295 CNS = tested on: SF-295 CNS
OVCAR-5 ovarian = tested on: OVCAR-5 ovarian
SF-539 CNS = tested on: SF-539 CNS
MDA-MB-435 = tested on: MDA-MB-435
OVCAR-3 ovarian = tested on: OVCAR-3 ovarian
PC-3 prostate = tested on: PC-3 prostate
SNB-19 CNS = tested on: SNB-19 CNS
MDA-N = tested on: MDA-N

Cc1c/c(=N/NC(=O)c2ccncc2)n2nc(N)sc2n1
TGI (SW-620 colon): > 100 µM
TGI (NCI-H23 lung): > 100 µM
TGI (K-562 leukemia): > 100 µM
TGI (HCT-116 colon): > 100 µM
TGI (HL-60(TB) leukemia): > 100 µM
TGI (HCC-2998 colon): > 100 µM
TGI (MOLT-4 leukemia): > 100 µM
TGI (UACC-257 melanoma): > 100 µM
TGI (M14 melanoma): > 100 µM
TGI (RXF 393 renal): > 100 µM
TGI (SR leukemia): > 100 µM
TGI (LOX IMVI melanoma): > 100 µM
TGI (SF-295 CNS): > 100 µM
TGI (OVCAR-5 ovarian): > 100 µM
TGI (SF-539 CNS): > 100 µM
TGI (MDA-MB-435): > 100 µM
TGI (OVCAR-3 ovarian): > 100 µM
TGI (PC-3 prostate): > 100 µM
TGI (SNB-19 CNS): > 100 µM

N#CC1=C(N)OC(c2cccc([N+](=O)[O-])c2)C1(C#N)C#N (centres undefined)
TGI (NCI-H23 lung): 39.3 µM
TGI (K-562 leukemia): > 100 µM
TGI (HCT-116 colon): 28.5 µM
TGI (HL-60(TB) leukemia): > 100 µM
TGI (HCC-2998 colon): 35.2 µM
TGI (MDA-N): 62.6 µM
TGI (UACC-257 melanoma): 31.3 µM
TGI (M14 melanoma): 63.6 µM
TGI (RXF 393 renal): 43.3 µM
TGI (LOX IMVI melanoma): 28.4 µM
TGI (SF-295 CNS): 73.2 µM
TGI (OVCAR-5 ovarian): 42.7 µM
TGI (SF-539 CNS): 42.5 µM
TGI (MDA-MB-435): 59.2 µM
TGI (PC-3 prostate): 51.4 µM
TGI (SNB-19 CNS): 42.5 µM

CCn1c(O)c(C=Nc2ccccc2)s/c1=N/Nc1nc(-c2ccc(O)c(O)c2)cs1
TGI (SW-620 colon): > 100 µM
TGI (NCI-H23 lung): > 100 µM
TGI (K-562 leukemia): 26.5 µM
TGI (HCT-116 colon): > 100 µM
TGI (HL-60(TB) leukemia): 6.04 µM
TGI (MOLT-4 leukemia): 92.2 µM
TGI (UACC-257 melanoma): > 100 µM
TGI (M14 melanoma): > 100 µM
TGI (RXF 393 renal): > 100 µM
TGI (SR leukemia): 15.9 µM
TGI (LOX IMVI melanoma): > 100 µM
TGI (SF-295 CNS): 85.6 µM
TGI (OVCAR-5 ovarian): > 100 µM
TGI (SF-539 CNS): 4.76 µM
TGI (OVCAR-3 ovarian): 49 µM
TGI (PC-3 prostate): > 100 µM
TGI (SNB-19 CNS): > 100 µM

O=S(=O)(Oc1ccc2ccccc2c1-c1c(OS(=O)(=O)C(F)(F)F)ccc2ccccc12)C(F)(F)F
TGI (SW-620 colon): > 100 µM
TGI (NCI-H23 lung): > 100 µM
TGI (K-562 leukemia): > 100 µM
TGI (HCT-116 colon): > 100 µM
TGI (HL-60(TB) leukemia): > 100 µM
TGI (HCC-2998 colon): > 100 µM
TGI (MOLT-4 leukemia): > 100 µM
TGI (UACC-257 melanoma): 8.3 µM
TGI (M14 melanoma): > 100 µM
TGI (RXF 393 renal): > 100 µM
TGI (SR leukemia): > 100 µM
TGI (SF-295 CNS): > 100 µM
TGI (OVCAR-5 ovarian): > 100 µM
TGI (SF-539 CNS): > 100 µM
TGI (MDA-MB-435): > 100 µM
TGI (OVCAR-3 ovarian): > 100 µM
TGI (PC-3 prostate): > 100 µM
TGI (SNB-19 CNS): > 100 µM

N=c1oc2ccccc2cc1C(=O)Nc1nccs1
TGI (SW-620 colon): > 100 µM
TGI (NCI-H23 lung): > 100 µM
TGI (K-562 leukemia): > 100 µM
TGI (HCT-116 colon): > 100 µM
TGI (HL-60(TB) leukemia): 5.92 µM
TGI (HCC-2998 colon): > 100 µM
TGI (MOLT-4 leukemia): 22.1 µM
TGI (UACC-257 melanoma): > 95.3 µM
TGI (M14 melanoma): > 100 µM
TGI (RXF 393 renal): > 83.9 µM
TGI (SR leukemia): 47.7 µM
TGI (LOX IMVI melanoma): 7.71 µM
TGI (SF-295 CNS): > 100 µM
TGI (OVCAR-5 ovarian): > 100 µM
TGI (MDA-MB-435): > 100 µM
TGI (OVCAR-3 ovarian): 43.3 µM
TGI (PC-3 prostate): > 100 µM
TGI (SNB-19 CNS): > 100 µM

NS(=O)(=O)c1nnc(NS(=O)(=O)c2ccc(Cl)cc2)s1
TGI (SW-620 colon): > 100 µM
TGI (NCI-H23 lung): > 100 µM
TGI (K-562 leukemia): > 100 µM
TGI (HCT-116 colon): > 100 µM
TGI (HCC-2998 colon): > 100 µM
TGI (MDA-N): > 100 µM
TGI (MOLT-4 leukemia): > 100 µM
TGI (UACC-257 melanoma): > 100 µM
TGI (M14 melanoma): > 100 µM
TGI (RXF 393 renal): > 100 µM
TGI (SR leukemia): > 100 µM
TGI (LOX IMVI melanoma): > 100 µM
TGI (SF-295 CNS): > 100 µM
TGI (OVCAR-5 ovarian): > 100 µM
TGI (MDA-MB-435): > 100 µM
TGI (OVCAR-3 ovarian): > 100 µM
TGI (SNB-19 CNS): > 100 µM

CSc1nc(Br)nc2ncn(C3CC(Oc4ccc(C)cc4)C(COc4ccc(C)cc4)O3)c12 (centres undefined)
TGI (SW-620 colon): > 100 µM
TGI (NCI-H23 lung): > 100 µM
TGI (HCT-116 colon): > 100 µM
TGI (HL-60(TB) leukemia): > 100 µM
TGI (HCC-2998 colon): > 100 µM
TGI (MDA-N): > 100 µM
TGI (MOLT-4 leukemia): > 100 µM
TGI (UACC-257 melanoma): > 100 µM
TGI (M14 melanoma): > 100 µM
TGI (LOX IMVI melanoma): > 100 µM
TGI (SF-295 CNS): > 100 µM
TGI (OVCAR-5 ovarian): > 100 µM
TGI (SF-539 CNS): > 100 µM
TGI (MDA-MB-435): > 100 µM
TGI (OVCAR-3 ovarian): > 100 µM
TGI (PC-3 prostate): > 100 µM
TGI (SNB-19 CNS): > 100 µM

O=C(NCCCNCCCCNCCCNC(=O)c1cc(-c2ccccc2)nc2ccccc12)c1cc(-c2ccccc2)nc2ccccc12
TGI (SW-620 colon): 13.1 µM
TGI (NCI-H23 lung): > 24.1 µM
TGI (K-562 leukemia): 3.83 µM
TGI (HCT-116 colon): > 100 µM
TGI (HL-60(TB) leukemia): 3.8 µM
TGI (HCC-2998 colon): 4.61 µM
TGI (MDA-N): 3.17 µM
TGI (MOLT-4 leukemia): 3.73 µM
TGI (UACC-257 melanoma): 13.3 µM
TGI (M14 melanoma): 5.23 µM
TGI (RXF 393 renal): 74.2 µM
TGI (SR leukemia): 4.95 µM
TGI (LOX IMVI melanoma): 3.12 µM
TGI (SF-295 CNS): 14.4 µM
TGI (OVCAR-5 ovarian): 5.26 µM
TGI (SF-539 CNS): 3.62 µM
TGI (OVCAR-3 ovarian): 15.9 µM
TGI (PC-3 prostate): 4.33 µM

COC(=O)/C=C(\C)CC/C=C(\C)CCC(O)C(C)(C)O (centres undefined)
TGI (SW-620 colon): 53.5 µM
TGI (NCI-H23 lung): 98.3 µM
TGI (K-562 leukemia): 76.7 µM
TGI (HCT-116 colon): 44.9 µM
TGI (HL-60(TB) leukemia): 42.2 µM
TGI (HCC-2998 colon): 47.2 µM
TGI (MDA-N): 57.8 µM
TGI (MOLT-4 leukemia): 39 µM
TGI (UACC-257 melanoma): > 100 µM
TGI (M14 melanoma): 81.3 µM
TGI (RXF 393 renal): 59.9 µM
TGI (SR leukemia): 44.6 µM
TGI (LOX IMVI melanoma): 31.5 µM
TGI (SF-295 CNS): 61.6 µM
TGI (OVCAR-5 ovarian): > 100 µM
TGI (SF-539 CNS): 35.9 µM
TGI (OVCAR-3 ovarian): 65.3 µM
TGI (PC-3 prostate): 30.8 µM
TGI (SNB-19 CNS): > 100 µM

O=C(Nc1ncc([N+](=O)[O-])s1)c1ccccc1O
TGI (SW-620 colon): > 100 µM
TGI (NCI-H23 lung): > 70.5 µM
TGI (K-562 leukemia): > 100 µM
TGI (HCT-116 colon): 46.4 µM
TGI (HCC-2998 colon): > 100 µM
TGI (MDA-N): 99.4 µM
TGI (MOLT-4 leukemia): > 100 µM
TGI (UACC-257 melanoma): 98.4 µM
TGI (M14 melanoma): 79.7 µM
TGI (RXF 393 renal): 23.6 µM
TGI (LOX IMVI melanoma): > 100 µM
TGI (SF-295 CNS): 46.5 µM
TGI (OVCAR-5 ovarian): > 100 µM
TGI (SF-539 CNS): > 100 µM
TGI (MDA-MB-435): 66.7 µM
TGI (OVCAR-3 ovarian): > 42.4 µM
TGI (PC-3 prostate): > 94.7 µM
TGI (SNB-19 CNS): > 100 µM

Cc1cc(-c2cscn2)c(O)c([N+](=O)[O-])c1
TGI (SW-620 colon): > 100 µM
TGI (NCI-H23 lung): > 100 µM
TGI (K-562 leukemia): > 100 µM
TGI (HCT-116 colon): > 100 µM
TGI (HL-60(TB) leukemia): > 100 µM
TGI (HCC-2998 colon): > 100 µM
TGI (MDA-N): > 100 µM
TGI (UACC-257 melanoma): > 100 µM
TGI (M14 melanoma): > 100 µM
TGI (LOX IMVI melanoma): > 100 µM
TGI (SF-295 CNS): > 100 µM
TGI (OVCAR-5 ovarian): > 100 µM
TGI (SF-539 CNS): > 100 µM
TGI (MDA-MB-435): > 100 µM
TGI (PC-3 prostate): > 100 µM
TGI (SNB-19 CNS): > 100 µM

O=c1c2n[nH]nc2nc2n1CC(c1ccccc1)S2 (centres undefined)
TGI (SW-620 colon): > 100 µM
TGI (NCI-H23 lung): > 100 µM
TGI (K-562 leukemia): > 100 µM
TGI (HCT-116 colon): > 100 µM
TGI (HL-60(TB) leukemia): > 100 µM
TGI (HCC-2998 colon): > 100 µM
TGI (MDA-N): > 100 µM
TGI (MOLT-4 leukemia): > 100 µM
TGI (UACC-257 melanoma): > 100 µM
TGI (RXF 393 renal): 94.9 µM
TGI (LOX IMVI melanoma): > 100 µM
TGI (SF-295 CNS): > 100 µM
TGI (OVCAR-5 ovarian): > 100 µM
TGI (SF-539 CNS): > 100 µM
TGI (MDA-MB-435): > 100 µM
TGI (OVCAR-3 ovarian): > 100 µM
TGI (SNB-19 CNS): > 100 µM

CCCCc1ccc(Nc2nc(Cl)c3ncn(C4CC(Oc5ccc(C)cc5)C(COc5ccc(C)cc5)O4)c3n2)cc1 (centres undefined)
TGI (SW-620 colon): > 100 µM
TGI (NCI-H23 lung): > 100 µM
TGI (K-562 leukemia): > 100 µM
TGI (HCT-116 colon): > 100 µM
TGI (HL-60(TB) leukemia): > 100 µM
TGI (HCC-2998 colon): > 100 µM
TGI (MDA-N): > 100 µM
TGI (MOLT-4 leukemia): > 100 µM
TGI (UACC-257 melanoma): > 100 µM
TGI (M14 melanoma): > 100 µM
TGI (RXF 393 renal): > 100 µM
TGI (SR leukemia): > 100 µM
TGI (LOX IMVI melanoma): > 100 µM
TGI (SF-295 CNS): > 100 µM
TGI (OVCAR-5 ovarian): > 100 µM
TGI (SF-539 CNS): > 100 µM
TGI (MDA-MB-435): > 100 µM
TGI (OVCAR-3 ovarian): > 100 µM
TGI (SNB-19 CNS): > 100 µM
